From patent US20220339135A1, “COMPOSITIONS AND METHODS FOR MODULATING AN INFLAMMATORY RESPONSE” (Enzychem Lifesciences Corporation, priority 2019, published 2022)

System: gemcitabine-induced neutrophil extravasation
Assay: Gemcitabine-induced neutropenia mice model
Type: in vivo
Method: Male BALB/c mice were randomly divided into 3 groups; normal control group (n=5), gemcitabine only group (n=5) and gemcitabine with PLAG group (n=5). The mice were intraperitoneally (i.p.) injected with 50 mg/kg gemcitabine to induce neutropenia. PLAG was diluted with phosphate-buffered saline (PBS) and then orally administrated at a dose of 50 or 250 mg/kg/day. The normal control group was administered PBS only during the experiment. The whole blood was collected from the orbital sinuses using capillary tubes (Kimble Chase Life Science and Research Products LLC, FL, USA) and collection tubes containing K3E-K3EDTA (Greiner Bio-One International, Germany). To obtain peritoneal cells, 5 ml of cold PBS was injected to the left side of the peritoneal wall using a 5 mL syringe, and the fluid was aspirated from the peritoneum. The collected cells were counted by complete blood count (CBC) analysis using Mindray BC-5300 auto-hematology analyzer (Shenzhen Mindray Biomedical Electronics, China). To establish a 4T1 tumor-bearing mice model, the murine 4T1 mammary carcinoma cells (1×10^5) were subcutaneously injected on the right side of the abdomen. On the 10th day after tumor injection, the mice were intraperitoneally (i.p.) injected with 50 mg/kg gemcitabine, and the next day the whole blood was collected from the orbital sinuses as mentioned above before sacrificing the animals to obtain different organs of the body for RT-PCR.
PLAG inhibits gemcitabine-induced neutrophil extravasation into the peritoneum by down-regulating the expression of adhesion molecules in normal BALB/c mice. Male BALB/c mice of 8-10 weeks of age were orally administrated with 50 or 250 mg/kg of PLAG and then were intraperitoneally injected with 50 mg/kg gemcitabine. After 24 h, blood samples were collected by retro-orbital bleeding, and the number of blood neutrophils was determined by CBC analysis. Each group contains five mice. The population of blood neutrophils was analyzed by flow cytometry. Red cell-lysed whole blood was stained with FITC-conjugated anti-Ly6G and PE-Cy7-conjugated anti-CD11b antibodies to determine the circulating neutrophil population. Ly6G+/CD11b+ cells were further stained with APC-conjugated anti-L-selectin and APC-conjugated anti-LFA-1 antibodies and were analyzed by flow cytometry to determine the expression of adhesion molecules.
The mice were intraperitoneally (i.p.) injected with 50 mg/kg gemcitabine to induce neutropenia. PLAG was diluted with phosphate-buffered saline (PBS) and then orally administrated at a dose of 50 or 250 mg/kg/day. The normal control group was administered PBS only during the experiment. At 15 h after gemcitabine treatment, the whole blood was collected from the orbital sinuses using capillary tubes (Kimble Chase Life Science and Research Products LLC, FL, USA) and collection tubes containing K3E-K3EDTA (Greiner Bio-One International, Kremsmünster, Austria). To obtain peritoneal cells, 5 ml of cold PBS was injected to the left side of the peritoneal wall using a 5 mL syringe, and the fluid was aspirated from the peritoneum. The collected cells were counted by complete blood count (CBC) analysis using Mindray BC-5300 auto-hematology analyzer (Shenzhen Mindray Biomedical Electronics, Guangdong Sheng, China).
To establish a 4T1 tumor-bearing mice model, the murine 4T1 mammary carcinoma cells (1×105) were subcutaneously injected on the right side of the abdomen. On the 10th day after tumor injection, the mice were intraperitoneally (i.p.) injected with 50 mg/kg gemcitabine, and the next day the whole blood was collected from the orbital sinuses as mentioned above before sacrificing the animals to obtain different organs of the body.

CCCCC/C=C\C/C=C\CCCCCCCC(=O)OC(COC(C)=O)COC(=O)CCCCCCCCCCCCCCC (racemic) [PLAG, 1-palmitoyl-2-linoleoyl-3-acetylglycerol]
neutrophil counts in the peritoneum (15 hours after gemcitabine): effectively decreases | gemcitabine-induced cell surface expression of L-selectin and LFA-1 (Gr-1+/CD11b+ cells): effectively inhibited | circulating neutrophil counts (PLAG 50 and 250 mg/kg oral, 15 hours after gemcitabine, dose-dependent): restored circulating neutrophils to an almost normal range | population of Gr-1+ and CD11b+ neutrophils in the blood (gemcitabine 50 mg/kg i.p.): maintained
